Assay results from patent publication US20250333397A1 (REMIX THERAPEUTICS INC., priority 2021, published 2025).
Like-named read-outs stand apart in the source and are kept apart here.

Key:
Format in all cases: cell-based, human
[1] = test system: SMN2 mRNA; experiment: RT-qPCR splicing assay panel, SMN2 canonical junction (CJ) mRNA; conditions: canonical junction (CJ) mRNA, RT-qPCR panel, Table 4A, read-out: SMN2, decrease in CJ mRNA levels, IC50
Description: (§1) Compounds described herein were used to modulate RNA transcript abundance in cells. The expression of a target mRNA was measured by detecting the formation of an exon-exon junction in the canonical transcript (CJ). A compound mediated exon-inclusion event was detected by observing an increase in formation of a new junction with an alternative exon (AJ). Real-time qPCR assays were used to detect these splicing switches and interrogate the potency of various compounds towards different target genes. A high-throughput real time quantitative PCR (RT-qPCR) assay was developed to measure these two isoforms of the mRNA (CJ and AJ) for exemplary genes, such as HTT, SMN2, and MYB, together with a control housekeeping gene, GAPDH or GUSB or PPIA, used for normalization. Briefly, the A673 or K562 cell line was treated with various compounds described herein (e.g., compounds of Formula (I), (II), (III), (IV)). After treatment, the levels of the HTT, MYB, or SMN2 mRNA targets were determined from each sample of cell lysate by cDNA synthesis followed by qPCR.
(§2) The A673 cell line was cultured in DMEM with 10% FBS. Cells were diluted with full growth media and plated in a 96-well plate (15,000 cells in 100ul media per well). The plate was incubated at 37° C. with 5% CO2 for 24 hours to allow cells to adhere. An 11-point 3-fold serial dilution of the compounds was made in DMSO then diluted in media in an intermediate plate. Compounds were transferred from the intermediate plate to the cell plate with the top dose at a final concentration of 10 uM in the well. Final DMSO concentration was kept at or below 0.25%. The cell plate was returned to the incubator at 37° C. with 5% CO2 for an additional 24 hours.
(§3) The K562 cell line was cultured in IMDM with 10% FBS. For K562, cells were diluted with full growth media and plated in either a 96-well plate (50,000 cells in 50 uL media per well) or a 384-well plate (8,000-40,000 cells in 45 uL media per well). An 11-point 3-fold serial dilution of the compounds were made in DMSO then diluted in media in an intermediate plate.
(§4) Compound was transferred from the intermediate plate to the cell plate with the top dose at a final concentration of 10 uM in the well. Final DMSO concentration was kept at or below 0.25%.
(§5) Final volume was 100 uL for 96-well plate and 50 uL for 384-well plate. The cell plate was then placed in an incubator at 37° C. with 5% CO2 for 24 hours.
(§6) The cells were then gently washed with 50 uL-100 uL cold PBS before proceeding to addition of lysis buffer. 30 uL-50 μL of room temperature lysis buffer with DNAse I (and optionally RNAsin) was added to each well. Cells were shaken/mixed thoroughly at room temperature for 5-10 minutes for lysis to take place and then 3 uL-5 μL of room temperature stop solution was added and wells were shaken/mixed again. After 2-5 minutes, the cell lysate plate was transferred to ice for RT-qPCR reaction setup. The lysates could also be frozen at −80° C. for later use.
(§7) In some cases, a direct lysis buffer was used. An appropriate volume of 3× lysis buffer (10 mM Tris, 150 mM NaCl, 1.5%-2.5% Igepal and 0.1-1 U/uL RNAsin, pH 7.4) was directly added to either K562 or A673 cells in media and mixed by pipetting 3 times. The plates were then incubated at room temperature with shaking/rocking for 20-50 minutes to allow for lysis to take place. After this time, the cell lysate plate was transferred to ice to set up for the RT-qPCR reactions. The lysates could also be frozen at −80° C. for later use.
(§8) To set up 10 uL RT-qPCR reactions, cell lysates were transferred to 384-well qPCR plates containing the master mix according to the table below. The plates were sealed, gently vortexed, and spun down before the run. The volumes were adjusted accordingly in some instances where the reaction was carried in 20 μL. The table below summarizes the components of the RT-qPCR reactions: […]

[2] = test system: MYB mRNA; experiment: RT-qPCR splicing assay, MYB canonical (CJ) and alternative (AJ) junction mRNA; conditions: for AC50: read-out: MYB AJ (AC50, increase in AJ mRNA)
Description: as §1, §2, §3, §4, §5, §6, §7, §8

[3] = test system: Target C mRNA; experiment: RT-qPCR splicing assay panel, Target C canonical junction (CJ) mRNA; conditions: Homo sapiens, canonical junction (CJ) mRNA, RT-qPCR panel, Table 4A; read-out: Target C, decrease in CJ mRNA levels, IC50
Description: as §1, §2, §3, §4, §5, §6, §7, §8

[4] = test system: HTT mRNA; experiment: RT-qPCR splicing assay, HTT canonical (CJ) and alternative (AJ) junction mRNA; conditions: for AC50: read-out: HTT AJ (AC50, increase in AJ mRNA)
Description: as §1, §2, §3, §4, §5, §6, §7, §8

[5] = Homo sapiens, 24 h, Table 3A, A673 or K562 cells, 24 h treatment
[6] = Homo sapiens, 24 h, Table 3A, A673 or K562 cells, 24 h treatment, read-out: MYB CJ (IC50, decrease in CJ mRNA)
[7] = Homo sapiens, canonical junction (CJ) mRNA, RT-qPCR panel, Table 4A, read-out: MYB, decrease in CJ mRNA levels, IC50
[8] = Homo sapiens, 24 h, Table 3A, A673 or K562 cells, 24 h treatment, read-out: HTT CJ (IC50, decrease in CJ mRNA)
[9] = Homo sapiens, canonical junction (CJ) mRNA, RT-qPCR panel, Table 4A, read-out: HTT, decrease in CJ mRNA levels, IC50
[10] = Table 3A, A673 or K562 cells, 24 h treatment, read-out: MYB CJ (IC50, decrease in CJ mRNA)

IC50 ([1]; Homo sapiens) [nM] | IC50 [2, 6] [nM] | IC50 [2, 7] [nM] | IC50 [3] [nM] | IC50 [4, 8] [nM] | IC50 [4, 9] [nM] | IC50 [1] [nM] | IC50 [2, 10] [nM] | IC50 ([4]; Table 3A, A673 or K562 cells, 24 h treatment, read-out: HTT CJ (IC50, decrease in CJ mRNA)) [nM] | SMILES | AC50 [2, 5] [nM] | AC50 [4, 5] [nM] | AC50 ([2]; Table 3A, A673 or K562 cells, 24 h treatment) [nM]
< 100 | 100 to 1000 | 100 to 1000 | 100 to 1000 | 100 to 1000 | 100 to 1000 |  |  |  | COc1cc(-c2cc(O)c(-c3ccc(N4CC[C@@H](N[C@H]5C[C@@H](F)C5)C4)nn3)cc2F)cnn1 (racemic) [Compound 161, 4-fluoro-5-(6-methoxypyridazin-4-yl)-2-[6-(3-{[(1s,3s)-3-fluorocyclobutyl]amino}pyrrolidin-1-yl)pyridazin-3-yl]phenol] | 100 to 1000 | 100 to 1000 | 
< 100 | 1000 to 10000 | 1000 to 10000 | 100 to 1000 | < 100 | < 100 |  |  |  | COc1cc(-c2cc(O)c(-c3ccc(N4CC[C@@](C)(NC5CCC5)C4)nn3)cc2F)cnn1 (single isomer, unassigned) [Compound 308, 2-{6-[3-(cyclobutylamino)-3-methylpyrrolidin-1-yl]pyridazin-3-yl}-4-fluoro-5-(6-methoxypyridazin-4-yl)phenol] | 100 to 1000 | 100 to 1000 | 
< 100 | 100 to 1000 | 100 to 1000 | < 100 | < 100 | < 100 |  |  |  | Cc1ncc(-c2ccc(-c3ccc(N4CC[C@@](C)(NCC5CC5)C4)nn3)c(O)c2)s1 (single isomer, unassigned) [Compound 439] | 100 to 1000 | < 100 | 
 | < 100 |  |  | < 100 |  |  |  |  | COc1cc(-c2cc(O)c(-c3ccc(N4CC[C@H](N(C)C(C)(C)C)C4)nn3)cc2F)cnn1 [Compound 234, 2-{6-[(3S)-3-[tert-butyl(methyl)amino]pyrrolidin-1-yl]pyridazin-3-yl}-4-fluoro-5-(6-methoxypyridazin-4-yl)phenol] | < 100 | < 100 | 
 | 100 to 1000 |  |  | 100 to 1000 |  |  |  |  | Cn1cnc(-c2ccc(-c3ccc(N4CC[C@H](NC(C)(C)C)C4)nn3)c(O)c2)cc1=O [Compound 236, 6-(4-{6-[(3S)-3-(tert-butylamino)pyrrolidin-1-yl]pyridazin-3-yl}-3-hydroxyphenyl)-3-methylpyrimidin-4-one] | 100 to 1000 | 100 to 1000 | 
 | 100 to 1000 |  |  | < 100 |  |  |  |  | Cn1cnc(-c2ccc(-c3ccc(N4CC[C@@H](NC(C)(C)C)C4)nn3)c(O)c2)cc1=O [Compound 237, 6-(4-{6-[(3R)-3-(tert-butylamino)pyrrolidin-1-yl]pyridazin-3-yl}-3-hydroxyphenyl)-3-methylpyrimidin-4-one] | 100 to 1000 | < 100 | 
 | 100 to 1000 |  |  | < 100 |  |  |  |  | COc1cc(-c2ccc(-c3ccc(N4CC[C@@H](N(C)C5CCC5)C4)nn3)c(O)c2)cnn1 [Compound 238, 2-{6-[(3R)-3-[cyclobutyl(methyl)amino]pyrrolidin-1-yl]pyridazin-3-yl}-5-(6-methoxypyridazin-4-yl)phenol] | 100 to 1000 | 100 to 1000 | 
 |  |  |  |  |  | < 100 | < 100 | < 100 | Cc1ncc(-c2cc(O)c(-c3ccc(N4CC[C@H](N[C@H](C)C5CC5)C4)nn3)cc2F)s1 [Compound 394] |  |  | < 100
 |  |  |  |  |  | < 100 | 100 to 1000 |  | Cc1nnc(-c2ccc(-c3ccc(N4CC[C@@H](NCC5CC5)C4)nn3)c(O)c2)s1 [Compound 416] |  |  | 

The remaining lines, values behind:

SMILES | IC50 ([1]; Homo sapiens) [nM] | IC50 [2, 6] [nM] | IC50 [2, 7] [nM] | IC50 [3] [nM] | IC50 [4, 8] [nM] | IC50 [4, 9] [nM] | IC50 [1] [nM] | IC50 [2, 10] [nM] | IC50 ([4]; Table 3A, A673 or K562 cells, 24 h treatment, read-out: HTT CJ (IC50, decrease in CJ mRNA)) [nM] | AC50 [2, 5] [nM] | AC50 [4, 5] [nM] | AC50 ([2]; Table 3A, A673 or K562 cells, 24 h treatment) [nM]
COc1cc(-c2cc(O)c(-c3ccc(N4CC[C@](C)(NC5CCC5)C4)nn3)cc2F)cnn1 (single isomer, unassigned) [Compound 309, 2-{6-[3-(cyclobutylamino)-3-methylpyrrolidin-1-yl]pyridazin-3-yl}-4-fluoro-5-(6-methoxypyridazin-4-yl)phenol] | < 100 | 1000 to 10000 | 1000 to 10000 | 100 to 1000 | < 100 | < 100 |  |  |  | 1000 to 10000 | 100 to 1000 | 
Cc1ncc(-c2cc(O)c(-c3ccc(N4CC[C@@](C)(NCC5CC5)C4)nn3)cc2F)s1 (single isomer, unassigned) [Compound 399] | < 100 | 100 to 1000 | 100 to 1000 | < 100 | < 100 | < 100 |  |  |  | 100 to 1000 | < 100 | 
Cc1ncc(-c2cc(O)c(-c3ccc(N4CC[C@](C)(NCC5CC5)C4)nn3)cc2F)s1 (single isomer, unassigned) [Compound 400] | < 100 | 100 to 1000 | 100 to 1000 | < 100 | < 100 | < 100 |  |  |  | 100 to 1000 | < 100 | 
Cc1ncc(-c2ccc(-c3ccc(N4CC[C@](C)(NCC5CC5)C4)nn3)c(O)c2)s1 (single isomer, unassigned) [Compound 438] | < 100 | 100 to 1000 | 100 to 1000 | 100 to 1000 | < 100 | < 100 |  |  |  | 100 to 1000 | 100 to 1000 | 
COc1cc(-c2cc(O)c(-c3ccc(N4CC[C@@H](N(C)C(C)(C)C)C4)nn3)cc2F)cnn1 [Compound 235, 2-{6-[(3R)-3-[tert-butyl(methyl)amino]pyrrolidin-1-yl]pyridazin-3-yl}-4-fluoro-5-(6-methoxypyridazin-4-yl)phenol] |  | 100 to 1000 |  |  | < 100 |  |  |  |  | 100 to 1000 | < 100 | 
COc1cc(-c2ccc(-c3ccc(N4CC[C@H](N(C)C5CCC5)C4)nn3)c(O)c2)cnn1 [Compound 239] |  | 100 to 1000 |  |  | < 100 |  |  |  |  | 100 to 1000 | < 100 | 
COc1cc(-c2ccc(-c3ccc(N4CC[C@H](NC5(CF)CC5)C4)nn3)c(O)c2)cnn1 [Compound 241, 2-{6-[(3S)-3-{[1-(fluoromethyl)cyclopropyl]amino}pyrrolidin-1-yl]pyridazin-3-yl}-5-(6-methoxypyridazin-4-yl)phenol] |  | 100 to 1000 |  |  | < 100 |  |  |  |  | 100 to 1000 | 100 to 1000 | 
COc1cc(-c2ccc(-c3ccc(N4CC[C@@H](NC5(CF)CC5)C4)nn3)c(O)c2)cnn1 [Compound 242, 2-{6-[(3R)-3-{[1-(fluoromethyl)cyclopropyl]amino}pyrrolidin-1-yl]pyridazin-3-yl}-5-(6-methoxypyridazin-4-yl)phenol] |  | 100 to 1000 |  |  | < 100 |  |  |  |  | 100 to 1000 | 100 to 1000 | 
